The results in this text go back to patent US20260226086A1, “COMPOUNDS AND COMPOSITIONS AS STAT3 DEGRADERS AND USES THEREOF” (REGENTS OF THE UNIVERSITY OF MICHIGAN, priority 2023, published 2026).

The structures appear in SMILES notation. Read-outs that look alike come from different tables or passages of the source.

Format in all cases: cell-based
The target in experiment [1] is T1, STAT3 (Homo sapiens, UniProt P40763).
T1 construct: This cell line is a clone created by using CRISPR-Cas9 to fuse HiBiT to the 3′ end of STAT3 in HeLa cells; host or cells: STAT3-HiBiT KI HeLa cell line (CRISPR-Cas9 knock-in clone)
Kind of experiment: HiBiT assay, STAT3 degradation in STAT3-HiBiT KI HeLa cells. The following applies: for DC50: read-out: STAT3 Degradation (HeLa 24 h HiBit) DC50. Put shortly:
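HeLa cells with CRISPR knock-in of HiBiT at the STAT3 C-terminus, 20000 cells/well, treated with serial compound dilutions for 24 h at 37 °C, 5% CO2. Remaining STAT3 read by Nano-Glo HiBiT lytic luminescence versus untreated cells; IC50 from four-parameter nonlinear fit of triplicate means.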

The test system of experiment [2] is SU-DHL-1 cells. Kind of experiment: CellTiter-Glo 2.0 cell viability assay, SU-DHL-1. To be noted: Homo sapiens, 96 h, 4 days. A digest of the protocol: (§1)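 1000 cells per well exposed to serially diluted compounds for 4 days at 37 °C, 5% CO2. Viability measured by CellTiter-Glo 2.0 luminescence versus untreated cells; IC50 from four-parameter nonlinear fit of triplicate means.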

The subject of experiment [3] is SUP-M2 cells. Briefly: CellTiter-Glo 2.0 cell viability assay, SUP-M2. To be noted: SUP-M2, 96 h, 4 days. A digest of the protocol: as §1
A general note: Cellular ATP, detected with luciferase, serves as a proxy for viable cell number.

T1 sequence (P40763 whole entry): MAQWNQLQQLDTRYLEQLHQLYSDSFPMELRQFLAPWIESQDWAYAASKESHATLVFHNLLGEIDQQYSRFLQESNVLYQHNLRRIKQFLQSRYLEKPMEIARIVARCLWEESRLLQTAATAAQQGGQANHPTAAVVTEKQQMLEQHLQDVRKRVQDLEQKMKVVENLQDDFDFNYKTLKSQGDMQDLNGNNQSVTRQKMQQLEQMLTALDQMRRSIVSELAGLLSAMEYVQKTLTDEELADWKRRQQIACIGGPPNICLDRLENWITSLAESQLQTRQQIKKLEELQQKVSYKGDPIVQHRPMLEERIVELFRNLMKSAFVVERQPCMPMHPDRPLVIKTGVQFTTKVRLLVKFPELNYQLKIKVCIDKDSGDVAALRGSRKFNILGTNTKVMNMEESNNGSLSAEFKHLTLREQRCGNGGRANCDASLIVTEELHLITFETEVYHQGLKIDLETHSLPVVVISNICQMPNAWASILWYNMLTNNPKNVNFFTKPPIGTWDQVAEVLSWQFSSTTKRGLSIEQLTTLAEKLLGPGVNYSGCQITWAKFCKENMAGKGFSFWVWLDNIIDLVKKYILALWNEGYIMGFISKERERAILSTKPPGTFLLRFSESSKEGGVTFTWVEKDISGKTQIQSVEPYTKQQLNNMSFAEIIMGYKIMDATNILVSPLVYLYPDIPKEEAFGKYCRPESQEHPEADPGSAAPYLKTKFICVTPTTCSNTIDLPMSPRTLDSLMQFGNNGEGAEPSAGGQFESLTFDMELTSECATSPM

A word on the Dmax: it is the greatest extent of degradation seen. A low value points to a partial loss of target. Broadly, the DC50 is the midpoint of the concentration-degradation curve. The IC50 is the concentration at which inhibition is half-maximal. Low readings indicate higher potency, high ones lower potency. `CCS(=O)(=O)c1ccc(CNC(=O)[C@H](CCC(N)=O)NC(=O)[C@@H]2CC[C@@H]3CCN(C(=O)CCCCc4cn([C@@H](C(=O)N5C[C@H](O)C[C@H]5C(=O)N[C@H](C)c5ccc(-c6scnc6C)cc5)C5CCCCC5)nn4)C[C@H](NC(=O)c4cc5cc(C(=O)P(=O)(O)O)ccc5[nH]4)C(=O)N32)cc1` [Compound 20, (2-(((5S,8S,10aR)-8-(((S)-5-amino-1-((4-(ethylsulfonyl)benzyl)amino)-1,5-dioxopentan-2-yl)carbamoyl)-3-(5-(1-((R)-1-cyclohexyl-2-((2S,4R)-4-hydroxy-2-(((R)-1-(4-(4-methylthiazol-5-yl)phenyl)ethyl)carbamoyl)pyrrolidin-1-yl)-2-oxoethyl)-1H-1,2,3-triazol-4-yl)pentanoyl)-6-oxodecahydropyrrolo[1,2-a][1,5]diazocin-5-yl)carbamoyl)-1H-indole-5-carbonyl)phosphonic acid] showed a Dmax at 1 µM in experiment [1] (24 h) of more than 80%. In addition, the DC50 in experiment [1] (24 h) was less than 10 nM. For the same molecule, the IC50 in experiment [2] and in experiment [3] was less than 10 nM in each case.
Take `CC(=O)N1CC[C@H]2CC[C@@H](C(=O)N[C@@H](CCC(N)=O)COc3cccc(CCCc4cn([C@H](C(=O)N5C[C@H](O)C[C@H]5C(=O)N[C@@H](C)c5ccc(-c6scnc6C)cc5)C5CCOCC5)nn4)c3Cl)N2C(=O)[C@@H](NC(=O)c2cc3cc(C(=O)P(=O)(O)O)ccc3[nH]2)C1` [Compound 23, (2-(((5S,8S,10aR)-3-acetyl-8-(((S)-5-amino-1-(2-chloro-3-(3-(1-((S)-2-((2S,4R)-4-hydroxy-2-(((S)-1-(4-(4-methylthiazol-5-yl)phenyl)ethyl)carbamoyl)pyrrolidin-1-yl)-2-oxo-1-(tetrahydro-2H-pyran-4-yl)ethyl)-1H-1,2,3-triazol-4-yl)propyl)phenoxy)-5-oxopentan-2-yl)carbamoyl)-6-oxodecahydropyrrolo[1,2-a][1,5]diazocin-5-yl)carbamoyl)-1H-indole-5-carbonyl)phosphonic acid]: in experiment [1] (24 h), the Dmax at 1 µM is more than 80% and the DC50 is less than 10 nM. In addition, the IC50 in experiment [2] was less than 10 nM. In experiment [3], this molecule had an IC50 of less than 10 nM.
In experiment [1] (24 h), `CCS(=O)(=O)c1ccc(CNC(=O)[C@H](CCC(N)=O)NC(=O)[C@@H]2CC[C@@H]3CCN(C(=O)CCCCc4cn([C@@H](C(=O)N5C[C@H](O)C[C@H]5C(=O)N[C@H](C)c5ccc(-c6scnc6C)cc5)C5CCOCC5)nn4)C[C@H](NC(=O)c4cc5cc(C(=O)P(=O)(O)O)ccc5[nH]4)C(=O)N32)cc1` [Compound 24, (2-(((5S,8S,10aR)-8-(((S)-5-amino-1-((4-(ethylsulfonyl)benzyl)amino)-1,5-dioxopentan-2-yl)carbamoyl)-3-(5-(1-((R)-2-((2S,4R)-4-hydroxy-2-(((R)-1-(4-(4-methylthiazol-5-yl)phenyl)ethyl)carbamoyl)pyrrolidin-1-yl)-2-oxo-1-(tetrahydro-2H-pyran-4-yl)ethyl)-1H-1,2,3-triazol-4-yl)pentanoyl)-6-oxodecahydropyrrolo[1,2-a][1,5]diazocin-5-yl)carbamoyl)-1H-indole-5-carbonyl)phosphonic acid] yielded a maximal degradation (Dmax) at 1 µM of more than 80%. For the same molecule, the DC50 in experiment [1] was less than 10 nM. Moreover, the IC50 in experiment [2] and in experiment [3] was less than 10 nM throughout.
As for `CC(=O)N1CC[C@H]2CC[C@@H](C(=O)N[C@@H](CCC(N)=O)COc3cccc(CCCc4cn([C@H](C(=O)N5C[C@H](O)C[C@H]5C(=O)N[C@@H](C)c5ccc(-c6scnc6C)cc5)C5CCN(C6CCOCC6)CC5)nn4)c3Cl)N2C(=O)[C@@H](NC(=O)c2cc3cc(C(=O)P(=O)(O)O)ccc3[nH]2)C1` [Compound 25, (2-(((5S,8S,10aR)-3-acetyl-8-(((S)-5-amino-1-(2-chloro-3-(3-(1-((S)-2-((2S,4R)-4-hydroxy-2-(((S)-1-(4-(4-methylthiazol-5-yl)phenyl)ethyl)carbamoyl)pyrrolidin-1-yl)-2-oxo-1-(1-(tetrahydro-2H-pyran-4-yl)piperidin-4-yl)ethyl)-1H-1,2,3-triazol-4-yl)propyl)phenoxy)-5-oxopentan-2-yl)carbamoyl)-6-oxodecahydropyrrolo [1,2-a][1,5]diazocin-5-yl)carbamoyl)-1H-indole-5-carbonyl)phosphonic acid], the Dmax at 1 µM in experiment [1] (24 h) was in the range of 60 to 80%. Moreover, the DC50 in experiment [1] (24 h) lay within 100 to 1000 nM. Besides, the IC50 in experiment [2] and in experiment [3] was 10 to 100 nM throughout.
Consider `COCCOCCOCCOCCC(=O)N1CC[C@H]2CC[C@@H](C(=O)N[C@@H](CCC(N)=O)COc3cccc(CCCc4cn([C@H](C(=O)N5C[C@H](O)C[C@H]5C(=O)N[C@@H](C)c5ccc(-c6scnc6C)cc5)C(C)(C)C)nn4)c3Cl)N2C(=O)[C@@H](NC(=O)c2cc3cc(C(=O)P(=O)(O)O)ccc3[nH]2)C1` [Compound 30, (2-(((5S,8S,10aR)-8-(((S)-5-amino-1-(2-chloro-3-(3-(1-((S)-1-((2S,4R)-4-hydroxy-2-(((S)-1-(4-(4-methylthiazol-5-yl)phenyl)ethyl)carbamoyl)pyrrolidin-1-yl)-3,3-dimethyl-1-oxobutan-2-yl)-1H-1,2,3-triazol-4-yl)propyl)phenoxy)-5-oxopentan-2-yl)carbamoyl)-6-oxo-3-(2,5,8,11-tetraoxatetradecan-14-oyl)decahydropyrrolo[1,2-a][1,5]diazocin-5-yl)carbamoyl)-1H-indole-5-carbonyl)phosphonic acid], for which, in experiment [1] (24 h), the Dmax at 1 µM was more than 80% and the DC50 is less than 10 nM. The molecule also came in with an IC50 in experiment [2] of less than 10 nM. The molecule further displayed an IC50 in experiment [3] of 10 to 100 nM.
Regarding `COCCOCCOCCOCCN1CC[C@H]2CC[C@@H](C(=O)N[C@@H](CCC(N)=O)COc3cccc(CCCc4cn([C@H](C(=O)N5C[C@H](O)C[C@H]5C(=O)N[C@@H](C)c5ccc(-c6scnc6C)cc5)C(C)(C)C)nn4)c3Cl)N2C(=O)[C@@H](NC(=O)c2cc3cc(C(=O)P(=O)(O)O)ccc3[nH]2)C1` [Compound 31, (2-(((5S,8S,10aR)-8-(((S)-5-amino-1-(2-chloro-3-(3-(1-((S)-1-((2S,4R)-4-hydroxy-2-(((S)-1-(4-(4-methylthiazol-5-yl)phenyl)ethyl)carbamoyl)pyrrolidin-1-yl)-3,3-dimethyl-1-oxobutan-2-yl)-1H-1,2,3-triazol-4-yl)propyl)phenoxy)-5-oxopentan-2-yl)carbamoyl)-6-oxo-3-(2,5,8,11-tetraoxatridecan-13-yl)decahydropyrrolo[1,2-a][1,5]diazocin-5-yl)carbamoyl)-1H-indole-5-carbonyl)phosphonic acid], in experiment [1] (24 h), the Dmax at 1 µM is more than 80% and the half-maximal degradation concentration (DC50) fell in the range of 10 to 100 nM. The IC50 in experiment [2] fell in the range of 10 to 100 nM. Also, the IC50 in experiment [3] fell in the range of 10 to 100 nM.
As to `Cc1ncsc1-c1ccc([C@H](C)NC(=O)[C@@H]2C[C@@H](O)CN2C(=O)[C@@H](n2cc(CCCc3cccc(OC[C@H](CCC(N)=O)NC(=O)[C@@H]4CC[C@@H]5CCN(C(=O)C6CCN(C)CC6)C[C@H](NC(=O)c6cc7cc(C(=O)P(=O)(O)O)ccc7[nH]6)C(=O)N54)c3Cl)nn2)C(C)(C)C)cc1` [Compound 32, (2-(((5S,8S,10aR)-8-(((S)-5-amino-1-(2-chloro-3-(3-(1-((S)-1-((2S,4R)-4-hydroxy-2-(((S)-1-(4-(4-methylthiazol-5-yl)phenyl)ethyl)carbamoyl)pyrrolidin-1-yl)-3,3-dimethyl-1-oxobutan-2-yl)-1H-1,2,3-triazol-4-yl)propyl)phenoxy)-5-oxopentan-2-yl)carbamoyl)-3-(1-methylpiperidine-4-carbonyl)-6-oxodecahydropyrrolo[1,2-a][1,5]diazocin-5-yl)carbamoyl)-1H-indole-5-carbonyl)phosphonic acid], in experiment [1] (24 h), the Dmax at 1 µM is more than 80% and the DC50 lay within 10 to 100 nM. Besides, the IC50 in experiment [2] lay within 10 to 100 nM. Also, the IC50 in experiment [3] lay in the range of 100 to 1000 nM.
Turning to `Cc1ncsc1-c1ccc([C@H](C)NC(=O)[C@@H]2C[C@@H](O)CN2C(=O)[C@@H](n2cc(CCCc3cccc(OC[C@H](CCC(N)=O)NC(=O)[C@@H]4CC[C@@H]5CCN(C(=O)CCN6CCN(C)CC6)C[C@H](NC(=O)c6cc7cc(C(=O)P(=O)(O)O)ccc7[nH]6)C(=O)N54)c3Cl)nn2)C(C)(C)C)cc1` [Compound 33, (2-(((5S,8S,10aR)-8-(((S)-5-amino-1-(2-chloro-3-(3-(1-((S)-1-((2S,4R)-4-hydroxy-2-(((S)-1-(4-(4-methylthiazol-5-yl)phenyl)ethyl)carbamoyl)pyrrolidin-1-yl)-3,3-dimethyl-1-oxobutan-2-yl)-1H-1,2,3-triazol-4-yl)propyl)phenoxy)-5-oxopentan-2-yl)carbamoyl)-3-(3-(4-methylpiperazin-1-yl)propanoyl)-6-oxodecahydropyrrolo[1,2-a][1,5]diazocin-5-yl)carbamoyl)-1H-indole-5-carbonyl)phosphonic acid], in experiment [1] (24 h), the Dmax at 1 µM was more than 80% and the DC50 was in the range of 10 to 100 nM. The molecule also had an IC50 in experiment [2] of 10 to 100 nM. For the same molecule, the IC50 in experiment [3] lay in the range of 100 to 1000 nM.
